Experimental findings from patent US6964983B2, “Compounds that modulate PPAR activity and methods for their preparation” (Warner-Lambert Company, LLC, priority 2002, dated 2005) are described below.

Molecules are shown by their SMILES.

The target in data set [1] is T1, hPPARβ (Homo sapiens, UniProt Q03181).
T1 sequence (Q03181 171-441 limits assumed): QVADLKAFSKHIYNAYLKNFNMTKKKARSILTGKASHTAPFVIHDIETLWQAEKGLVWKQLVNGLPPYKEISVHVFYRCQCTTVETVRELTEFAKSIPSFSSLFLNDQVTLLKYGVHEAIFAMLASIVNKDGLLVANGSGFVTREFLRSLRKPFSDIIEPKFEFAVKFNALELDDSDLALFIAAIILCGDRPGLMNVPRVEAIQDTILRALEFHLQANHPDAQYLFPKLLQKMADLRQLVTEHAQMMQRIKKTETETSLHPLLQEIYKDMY
Kind of data set: Transient transfection assay in HepG2 cells, Gal4-hPPARβ chimeric receptor, luciferase reporter. In kind it is cell-based. The settings on record: Hep G2-hBeta EC50, 24 hours incubation; read-out: EC50β nM (Group). The method, then:
1. Test A. Transient Transfections Assay using the HepG2 Hepatoma Cell Line.
HepG2 cells were transiently transfected with an expression plasmids encoding hPPARα, hPPARβ or mPPARγ chimeric receptors and a reporter containing the yeast upstream activating sequence (UAS) upstream of the viral E1B promoter controlling a luciferase reporter gene. In addition, the plasmid pRSVβ-gal was used to control for transfection efficiency. HepG2 cells were grown in DMEM supplemented with 10% FBS and 1 μM non-essential amino acid. On the first day, cells were split into 100 mm dishes at 2.5×10^6/dish and incubated overnight at 37° C./5% CO2. On the second day the cells were transiently transfected with plasmid DNA encoding a chimeric receptor, the luciferase reporter gene; and β-gal. For each 100 mm dish, 15 μg of lucifease reporter (PG5E1b) DNA, 15 μg of Gal4-PPAR chimeric receptor DNA, and 1.5 μg of β-gal plasmid DNA were mixed with 1.4 ml of opti-MEM in the tube. 28 μl of LipoFectamine-2000 reagent was added to 1.4 ml of opti-MEM in the tube, and incubate for 5 min at RT. The diluted Lipofectamine-2000 reagent was combined with the DNA mixture, and incubate for 20 min at RT. After fresh medium was added to each 100 mm dish of cells, 2.8 ml of Lipofectamine2000-DNA mixture was added dropwise to the 100 mm dish containing 14 ml of medium, and incubate 37° C. overnight. On day three cells were trypsinized off the 100 mm dishes and re-plated on 96 well plates. Cells were plated at 2.5×10^4 cells per well in 150 μl of media and 50 μl of compound diluted by media was added. The test compound added were in the range from 50 μM to 50 pM. After addition of compounds, the plates were incubated at 37° C. for 24 hours. Subsequently cells were washed with once with 100 μl of PBS, lysed, and processed for measuring luciferase and β-gal activity using Dual-Light luciferase kit from Tropix ®, according to the manufacturer's recommendations, on an EG&G Bethold MicroLumat LB96P luminometer. EC50 values were obtained using the GraphPad Prism™ program.

As for `COc1cc(OCC(=O)O)c(C)cc1[S+]([O-])Cc1ccc(-c2ccc(C(F)(F)F)cc2)cc1` (stereo not shown) [Example 51, [5-Methoxy-2-methyl-4-(4′-trifluoromethyl-biphenyl-4-ylmethanesulfinyl)-phenoxy]-acetic acid], in data set [1], the EC50 was 2000 to 5000 nM.
`Cc1cc(SCc2ccc(OCc3ccc(Cl)cc3)cc2)ccc1OCC(=O)O` [Example 58, {4-[4-(4-Chloro-benzyloxy)-benzylsulfanyl]-2-methyl-phenoxy}-acetic acid] yielded a melting point of 164 °C. Moreover, the EC50 in data set [1] lay in the range of 2000 to 5000 nM.
In turn, `O=C(O)COc1ccc(SCc2cc(-c3ccc(C(F)(F)F)cc3)on2)c2c1CCCC2` [Example 102, {4-[5-(4-trifluoromethyl-phenyl)-isoxazol-3-ylmethylsulfanyl]-5,6,7,8-tetrahydro-naphthalen-1-yloxy}-acetic acid] came in with a melting point of 167 to 170 °C.
As for `COc1cc(OCC(=O)O)c(C)cc1SCc1ccc(-c2c(C)cc(C)cc2C)cc1` [Example 5, [5-Methoxy-2-methyl-4-(2′,4′,6′-trimethyl-biphenyl-4-ylmethylsulfanyl)-phenoxy]-acetic acid], the melting point stood at 141 °C. The EC50 in data set [1] was 1000 to 2000 nM.
The matching figures for `O=C(O)COc1ccc(SCc2ccc(OCc3cc(Cl)ccc3Cl)cc2)c2c1CCC2` [Example 71, {7-[4-(2,5-Dichloro-benzyloxy)-benzylsulfanyl]-indan-4-yloxy}-acetic acid]: 158 to 160 °C and 500 to 1000 nM.
The matching figures for `CCCCc1cc(SCc2ccc(-c3ccc(C(F)(F)F)cc3)cc2)ccc1OCC(=O)O` [Example 100, 2-[2-butyl-4-({4-[4-(trifluoromethyl)phenyl]phenyl}methylthio)phenoxy]acetic acid]: 155 to 157 °C and 500 to 1000 nM.
The matching figures for `O=C(O)COc1ccc(SCc2ccc(-c3ccc(C(F)(F)F)cn3)cc2)c2c1CCC2` [Example 26, {7-[4-(5-Trifluoromethyl-pyridin-2-yl)-benzylsulfanyl]-indan-4-yloxy}-acetic acid]: 220 °C (dec.) and below 300 nM.
Regarding `O=C(O)COc1ccc(SCc2ccc(-c3ccc(C(F)(F)F)cn3)cc2)c2c1CCCO2` [Example 86, {8-[4-(5-Trifluoromethyl-pyridine-2-yl)-benzylsulfanyl]-chroman-5-yloxy}-acetic acid], the melting point was 178 to 179 °C.
The molecule `O=C(O)COc1ccc(SCc2ccc(OCc3ccc(Cl)cc3)cc2)c2c1CCC2` [Example 70, {7-[4-(4-Chloro-benzyloxy)-benzylsulfanyl]-indan-4-yloxy}-acetic acid] came in with a melting point of 170 to 172 °C. Moreover, the EC50 in data set [1] lay within 500 to 1000 nM.
The like results for `O=C(O)COc1ccc(SCc2ccc(OCc3ccc(Cl)c(Cl)c3)cc2)c2c1CCC2` [Example 72, {7-[4-(3,4-Dichloro-benzyloxy)-benzylsulfanyl]-indan-4-yloxy}-acetic acid] were, in that order, 168 °C and 1000 to 2000 nM.
The like results for `COc1ccc(COc2ccc(CSc3ccc(OCC(=O)O)c4c3CCC4)cc2)cc1` [Example 68, {7-[4-(4-Methoxy-benzyloxy)-benzylsulfanyl]-indan-4-yloxy}-acetic acid] were, in that order, 183 to 185 °C and 1000 to 2000 nM.
The matching figures for `O=C(O)COc1ccc(SCc2ccc(OCc3ccc(F)cc3)cc2)c2c1CCC2` [Example 65]: 153 to 155 °C and above 5000 nM.
`Cc1cc(SCc2ccc(OCc3ccc(C(F)(F)F)cc3)cc2)c(Cl)cc1OCC(=O)O` [Example 61, {5-Chloro-2-methyl-4-[4-(4-trifluoromethyl-benzyloxy)-benzylsulfanyl]-phenoxy}-acetic acid] registered a melting point of 142 to 143 °C. In data set [1], the EC50 was 300 to 500 nM.
The like results for `O=C(O)COc1ccc(SCc2ccc(OCc3ccc(F)cc3F)cc2)c2c1CCC2` [Example 66, {7-[4-(2,4-Difluoro-benzyloxy)-benzylsulfanyl]-indan-4-yloxy}-acetic acid] were, in that order, 158 to 160 °C and above 5000 nM.
In the case of `O=C(O)COc1ccc(SCc2ccc(Cc3ccc(C(F)(F)F)cc3)cc2)c2c1CCC2` [Example 40, {7-[4-(4-trifluoromethyl-benzyl)-benzylsulfanyl]-indan-4-yloxy}-acetic acid], the EC50 in data set [1] is 500 to 1000 nM.
Consider `COc1cc(OCC(=O)O)c(C)cc1S(=O)(=O)Cc1ccc(-c2ccc(C(F)(F)F)cc2)cc1` [Example 50, [5-Methoxy-2-methyl-4-(4′-trifluoromethyl-biphenyl-4-ylmethanesulfonyl)-phenoxy]-acetic acid], for which, in data set [1], the EC50 was 2000 to 5000 nM.
The same measure, in the same setting: the result for `Cc1cc(SCc2ccc(-c3ccc(C(F)(F)F)cn3)cc2)c(Cl)cc1OCC(=O)O` [Example 37, {5-Chloro-2-methyl-4-[4-(5-trifluoromethyl-pyridin-2-yl)-benzylsulfanyl]-phenoxy}-acetic acid] reads below 300 nM; that for `COc1cc(OCC(=O)O)c(C)cc1SCc1ccc(-c2ccc(C(F)(F)F)cc2)cc1C` [Example 39, [5-Methoxy-2-methyl-4-(3-methyl-4′-trifluoromethyl-biphenyl-4-ylmethylsulfanyl)-phenoxy]-acetic acid], below 300 nM.
The same measure, in the same setting: in the case of `COc1cc(OCC(=O)O)c(C)cc1SCCc1cn(Cc2ccc(C(F)(F)F)cc2)c2ccccc12` [Example 54, (5-Methoxy-2-methyl-4-{2-[1-(4-trifluoromethyl-benzyl)-1H-indol-3-yl]-ethylsulfanyl}-phenoxy)-acetic acid] it was 300 to 500 nM.
As for `Cc1cc(SCc2ccc(-c3ccccc3)cc2)ccc1OCC(=O)O` [Example 2, [4-(Biphenyl-4-ylmethylsulfanyl)-2-methyl-phenoxy]-acetic acid], the melting point is 138 °C.
On the same count and under the same terms, in the case of `Cc1cc(SCc2ccc(OCc3ccccc3)cc2)ccc1OCC(=O)O` [Example 13, [4-(4-Benzyloxy-benzylsulfanyl)-2-methyl-phenoxy]-acetic acid] it was 120 to 121 °C; in that of `Cc1cc(/C=C/c2ccc(-c3ccc(C(F)(F)F)cc3)cc2)ccc1OCC(=O)O` [Example 24, {2-Methyl-4-[2-(4′-trifluoromethyl-biphenyl-4-yl)-vinyl]-phenoxy}-acetic acid], 243 to 245 °C.
As for `Cc1cc(SCc2ccc(Oc3ccccc3)cc2)ccc1OCC(=O)O` [Example 47, [2-Methyl-4-(4-phenoxy-benzylsulfanyl)-phenoxy]-acetic acid], the EC50 in data set [1] was above 5000 nM.
For `O=C(O)COc1ccc(SCc2cc(-c3ccc(C(F)(F)F)cc3)on2)c2c1CCCO2` [Example 94, {8-[5-(4-Trifluoromethyl-phenyl)-isoxazol-3-ylmethylsulfanyl]-chroman-5-yloxy}-acetic acid], the melting point is 171 to 173 °C.
The same measure, in the same setting: in the case of `Cc1cc(SCc2cc(-c3ccc(Cl)cc3)on2)ccc1OCC(=O)O` [Example 96, {4-[5-(4-Chloro-phenyl)-isoxazol-3-ylmethylsulfanyl]-2-methyl-phenoxy}-acetic acid] it was 152 to 153 °C.
Same read-out and setting: the result for `O=C(O)COc1ccc(SCc2cc(-c3ccc(Cl)cc3)on2)c2c1CCCO2` [Example 95, {8-[5-(4-Chloro-phenyl)-isoxazol-3-ylmethylsulfanyl]-chroman-5-yloxy}-acetic acid] reads 181 to 183 °C.
